The source made the active and inactive calls. The calls are words filed in the database; no cut-off is given here.
How the values were obtained:
[1] = target: T1, Nuclear receptor subfamily 1 group I member 3 (Homo sapiens, UniProt Q14994); experiment: Agonist activity at human CAR expressed in human HepG2 cells assessed as induction of CYP2B6 mRNA expression at 1 to 5 uM after 24 hrs by qRT-PCR method; assay type: cell-based; conditions: hepg2, 24 h
T1 sequence (Q14994 whole entry): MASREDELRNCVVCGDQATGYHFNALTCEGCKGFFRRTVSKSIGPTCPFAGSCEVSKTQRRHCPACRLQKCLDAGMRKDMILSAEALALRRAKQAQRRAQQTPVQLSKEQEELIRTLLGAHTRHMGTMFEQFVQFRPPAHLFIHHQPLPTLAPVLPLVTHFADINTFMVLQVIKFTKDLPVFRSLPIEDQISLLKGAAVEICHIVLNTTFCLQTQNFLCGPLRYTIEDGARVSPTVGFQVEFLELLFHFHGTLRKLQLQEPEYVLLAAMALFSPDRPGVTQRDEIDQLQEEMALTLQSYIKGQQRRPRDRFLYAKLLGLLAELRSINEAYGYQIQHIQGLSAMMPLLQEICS

[2] = target: T2, Glucocorticoid receptor (Homo sapiens) (UniProt P04150); experiment: Agonist activity at glucocorticoid receptor (unknown origin)
T2 sequence (whole entry): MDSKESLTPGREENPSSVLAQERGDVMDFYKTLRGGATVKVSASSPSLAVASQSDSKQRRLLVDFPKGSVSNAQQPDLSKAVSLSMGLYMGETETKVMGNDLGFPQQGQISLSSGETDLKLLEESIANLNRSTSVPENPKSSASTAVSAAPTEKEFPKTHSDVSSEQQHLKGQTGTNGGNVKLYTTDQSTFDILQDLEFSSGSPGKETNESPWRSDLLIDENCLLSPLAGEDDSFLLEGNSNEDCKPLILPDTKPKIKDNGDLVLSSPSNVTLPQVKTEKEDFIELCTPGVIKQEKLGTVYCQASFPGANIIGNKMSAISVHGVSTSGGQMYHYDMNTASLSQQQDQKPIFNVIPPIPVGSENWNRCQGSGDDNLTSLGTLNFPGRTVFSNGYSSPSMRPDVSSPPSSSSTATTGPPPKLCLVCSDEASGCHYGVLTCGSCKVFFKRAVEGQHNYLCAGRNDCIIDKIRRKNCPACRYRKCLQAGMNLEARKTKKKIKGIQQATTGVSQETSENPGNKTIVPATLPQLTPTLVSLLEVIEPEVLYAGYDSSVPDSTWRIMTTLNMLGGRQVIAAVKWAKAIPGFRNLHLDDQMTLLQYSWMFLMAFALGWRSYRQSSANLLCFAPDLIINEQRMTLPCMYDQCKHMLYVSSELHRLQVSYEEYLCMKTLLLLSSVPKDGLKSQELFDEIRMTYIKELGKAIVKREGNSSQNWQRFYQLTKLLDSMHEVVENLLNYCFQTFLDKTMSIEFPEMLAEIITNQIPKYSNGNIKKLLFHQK

[3] = target: T1, Nuclear receptor subfamily 1 group I member 3; experiment: Agonist activity at CAR in human primary hepatocytes assessed as upregulation of MDR/ABCB1 mRNA expression at 10 uM after 24 hrs by qRT-PCR method; assay type: cell-based, Hepatocyte
[4] = target: T3, Vitamin D3 receptor (Homo sapiens) (UniProt P11473); experiment: Agonist activity at VDR in human primary hepatocytes assessed as upregulation of CYP3A4 mRNA expression at 10 uM after 24 hrs by qRT-PCR method; assay type: cell-based; conditions: Hepatocyte
T3 sequence (whole entry): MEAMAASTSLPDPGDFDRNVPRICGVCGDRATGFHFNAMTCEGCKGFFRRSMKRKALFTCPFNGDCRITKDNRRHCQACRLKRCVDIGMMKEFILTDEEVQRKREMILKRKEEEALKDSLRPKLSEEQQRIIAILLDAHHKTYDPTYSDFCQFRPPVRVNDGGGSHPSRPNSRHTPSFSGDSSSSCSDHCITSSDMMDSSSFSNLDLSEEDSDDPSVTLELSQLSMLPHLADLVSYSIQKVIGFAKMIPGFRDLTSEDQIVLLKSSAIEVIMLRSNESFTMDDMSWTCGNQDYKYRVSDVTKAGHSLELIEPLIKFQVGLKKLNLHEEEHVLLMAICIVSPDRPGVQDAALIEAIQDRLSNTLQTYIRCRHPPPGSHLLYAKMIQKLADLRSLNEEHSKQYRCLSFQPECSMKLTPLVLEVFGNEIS

[5] = target: T1, Nuclear receptor subfamily 1 group I member 3; experiment: Agonist activity at human CAR expressed in human HepG2 cells assessed as induction of CYP2B6 mRNA expression at 1 to 10 uM after 24 hrs by qRT-PCR method; assay type: cell-based; conditions: hepg2, 24 h

Row | Activity [1] | Activity [2] | Activity [3] | Activity [4] | Activity [5] | SMILES
1 | Active | inactive | Active | Active | – | COc1cccc(-c2nc3ccccc3c(=S)[nH]2)c1
2 | – | inactive | Active | Active | Active | COc1cccc(-c2nc(OC)c3ccccc3n2)c1
3 | – | inactive | Active | Active | – | COc1cccc(-c2nc(SC)c3ccccc3n2)c1

Reference: ChEMBL document CHEMBL3822384, “2-(3-Methoxyphenyl)quinazoline Derivatives: A New Class of Direct Constitutive Androstane Receptor (CAR) Agonists” (J Med Chem, 2016)
